Measurements taken from patent US12692238B2, “Substituted pyridazinone herbicides” (FMC CORPORATION, priority 2020, dated 2026).

Experiments:
Assay type in all cases: in vivo
[1] = test system: barnyardgrass (Echinochloa crus-galli); assay: Test A preemergence, barnyardgrass; details: 10 days
Source text: (§1) Seeds of plant species selected from barnyardgrass (Echinochloa crus-galli), blackgrass (Alopecurus myosuroides), corn (Zea mays), foxtail, giant (giant foxtail, Setaria faberi), foxtail, green (green foxtail, Setaria viridis), goosegrass (Eleusine indica), kochia (Bassia scoparia), oat, wild (wild oat, Avena fatua), palmer amaranth (pigweed, palmer, Amaranthus palmeri), redroot pigweed (Amaranthus retroflexus), ragweed (common ragweed, Ambrosia artemisiifolia), ryegrass, Italian (Italian ryegrass, Lolium multiflorum), and soybean (Glycine max) were planted into a blend of loam soil and sand and treated preemergence with a directed soil spray using test chemicals formulated in a non-phytotoxic solvent mixture which included a surfactant.
(§2) At the same time, plants selected from these crop and weed species and also wheat (Triticum aestivum), galium (catchweed bedstraw, Galium aparine) and horseweed (Erigeron canadensis) were planted in pots containing the same blend of loam soil and sand and treated with postemergence applications of test chemicals formulated in the same manner. Plants ranged in height from 2 to 10 cm and were in the one- to two-leaf stage for the postemergence treatment. Treated plants and untreated controls were maintained in a greenhouse for 10 days, after which time all treated plants were compared to untreated controls and visually evaluated for injury. Plant response ratings, summarized in Table A, are based on a 0 to 100 scale where 0 is no effect and 100 is complete control. A dash (-) response means no test result.

[2] = test system: foxtail, giant (giant foxtail, Setaria faberi); assay: Test A preemergence, foxtail, giant; details: 0 to 100 scale, 10 days
Source text: as §1, §2

[3] = test system: kochia (Bassia scoparia); assay: Test A preemergence, kochia; details: 0 to 100 scale, 10 days
Source text: as §1, §2

[4] = test system: redroot pigweed (Amaranthus retroflexus); assay: Test A preemergence, redroot pigweed; details: 0 to 100 scale, 10 days
Source text: as §1, §2

[5] = test system: ragweed (common ragweed, Ambrosia artemisiifolia); assay: Test A preemergence, ragweed; details: 0 to 100 scale, 10 days
Source text: as §1, §2

[6] = test system: ryegrass, Italian (Italian ryegrass, Lolium multiflorum); assay: Test A preemergence, ryegrass, Italian; details: 0 to 100 scale, 10 days
Source text: as §1, §2

[7] = test system: barnyardgrass (Echinochloa crus-galli); assay: Test A postemergence, barnyardgrass; details: Postemergence, 0 to 100 scale, 10 days
Source text: as §1, §2

[8] = test system: blackgrass (Alopecurus myosuroides); assay: Test A postemergence, blackgrass; details: Postemergence, 0 to 100 scale, 10 days
Source text: as §1, §2

[9] = test system: corn (Zea mays); assay: Test A postemergence, corn; details: Postemergence, 0 to 100 scale, 10 days
Source text: as §1, §2

[10] = test system: foxtail, giant (giant foxtail, Setaria faberi); assay: Test A postemergence, foxtail, giant; details: Postemergence, 0 to 100 scale, 10 days
Source text: as §1, §2

[11] = test system: kochia (Bassia scoparia); assay: Test A postemergence, kochia; details: 10 days
Source text: as §1, §2

[12] = test system: redroot pigweed (Amaranthus retroflexus); assay: Test A postemergence, redroot pigweed; details: 10 days
Source text: as §1, §2

[13] = test system: ragweed (common ragweed, Ambrosia artemisiifolia); assay: Test A postemergence, ragweed; details: 10 days
Source text: as §1, §2

[14] = test system: ryegrass, Italian (Italian ryegrass, Lolium multiflorum); assay: Test A postemergence, ryegrass, Italian; details: 10 days
Source text: as §1, §2

[15] = test system: wheat (Triticum aestivum); assay: Test A postemergence, wheat; details: 10 days
Source text: as §1, §2

[16] = test system: galium (catchweed bedstraw, Galium aparine); assay: Test A postemergence, galium; details: 10 days
Source text: as §1, §2

[17] = test system: barnyardgrass (Echinochloa crus-galli); assay: Test B flooded paddy test, barnyardgrass; details: 250 g ai/ha, Flood; visually evaluated after 10 to 14 days
Method: (§3) Plant species in the flooded paddy test selected from barnyardgrass (Echinochloa crus-galli), ducksalad (Heteranthera limosa), rice (Oryza sativa), and sedge, umbrella (small-flower umbrella sedge, Cyperus difformis) were grown to the 2-leaf stage for testing. At time of treatment, test pots were flooded to 3 cm above the soil surface, treated by application of test compounds directly to the paddy water, and then maintained at that water depth for the duration of the test. Treated plants and controls were maintained in a greenhouse for 10 to 14 days, after which time all species were compared to controls and visually evaluated. Plant response ratings, summarized in Table B, are based on a scale of 0 to 100 where 0 is no effect and 100 is complete control. A dash (-) response means no test result.

[18] = test system: ducksalad (Heteranthera limosa); assay: Test B flooded paddy test, ducksalad; details: 250 g ai/ha, Flood; visually evaluated after 10 to 14 days
Method: as §3

[19] = test system: rice (Oryza sativa); assay: Test B flooded paddy test, rice; details: 250 g ai/ha, Flood; visually evaluated after 10 to 14 days
Method: as §3

[20] = test system: sedge, umbrella (small-flower umbrella sedge, Cyperus difformis); assay: Test B flooded paddy test, sedge, umbrella; details: 250 g ai/ha, Flood; visually evaluated after 10 to 14 days
Method: as §3

[21] = 125 g ai/ha, 0 to 100 scale (0 no effect, 100 complete control)
[22] = 31 g ai/ha, postemergence, 0 to 100 scale (0 no effect, 100 complete control)
[23] = Postemergence, 125 g ai/ha, 0 to 100 scale

| SMILES | Plant response rating, Barnyardgrass ([1]; 31 g ai/ha, 0 to 100 scale) | Plant response rating, Barnyardgrass [1, 21] | Plant response rating, Foxtail, Giant ([2]; 31 g ai/ha) | Plant response rating, Foxtail, Giant ([2]; 125 g ai/ha) | Plant response rating, Kochia ([3]; 31 g ai/ha) | Plant response rating, Kochia ([3]; 125 g ai/ha) | Plant response rating, Pigweed, Redroot ([4]; 31 g ai/ha) | Plant response rating, Pigweed, Redroot ([4]; 125 g ai/ha) | Plant response rating, Ryegrass, Italian ([6]; 31 g ai/ha) | Plant response rating, Ryegrass, Italian ([6]; 125 g ai/ha) | Plant response rating, Barnyardgrass ([7]; 31 g ai/ha) | Plant response rating, Barnyardgrass ([7]; 125 g ai/ha) | Plant response rating, Blackgrass ([8]; 31 g ai/ha) | Plant response rating, Blackgrass ([8]; 125 g ai/ha) | Plant response rating, Corn ([9]; 31 g ai/ha) | Plant response rating, Corn ([9]; 125 g ai/ha) | Plant response rating, Foxtail, Giant ([10]; 31 g ai/ha) | Plant response rating, Foxtail, Giant ([10]; 125 g ai/ha) | Plant response rating, Kochia [11, 22] | Plant response rating, Kochia [11, 23] | further results |
| --- | --- | --- | --- | --- | --- | --- | --- | --- | --- | --- | --- | --- | --- | --- | --- | --- | --- | --- | --- | --- | --- |
| CC(=O)OCOc1c(C)nn(C)c(=O)c1-c1c2ccccc2c(Cl)c2ccccc12 [Compound 12] | 20 | 90 | 10 | 80 | 0 | 100 | 100 | 100 | 70 | 90 | 10 | 60 | 0 | 30 | 0 | 10 | 20 | 80 | 40 | 80 | Plant response rating, Ragweed ([5]; 31 g ai/ha): 60; Plant response rating, Ragweed ([5]; 125 g ai/ha): 80; Plant response rating, Pigweed, Redroot [12, 22]: 100; Plant response rating, Pigweed, Redroot [12, 23]: 100; Plant response rating, Ragweed [13, 22]: 90; Plant response rating, Ragweed [13, 23]: 100; Plant response rating, Ryegrass, Italian [14, 22]: 80; Plant response rating, Ryegrass, Italian [14, 23]: 100; Plant response rating, Wheat [15, 22]: 0; Plant response rating, Wheat [15, 23]: 10; Plant response rating, Galium [16, 22]: 100; Plant response rating, Galium [16, 23]: 100; Plant response rating, Barnyardgrass (0 to 100 scale where 0 is no effect and 100 is complete control) [17]: 0; Plant response rating, Ducksalad (0 to 100 scale where 0 is no effect and 100 is complete control) [18]: 70; Plant response rating, Rice (0 to 100 scale where 0 is no effect and 100 is complete control) [19]: 0; Plant response rating, Sedge, Umbrella (0 to 100 scale where 0 is no effect and 100 is complete control) [20]: 85 |
| CC(=O)OCOc1c(C)nn(C)c(=O)c1-c1c2ccccc2cc2ccccc12 [Compound 13] | 0 | 30 | 0 | 20 | 0 | 0 | 100 | 100 | 30 | 70 | 10 | 40 | 0 | 40 | 0 | 0 | 10 | 60 | 10 | 50 | Plant response rating, Pigweed, Redroot [12, 22]: 100; Plant response rating, Pigweed, Redroot [12, 23]: 100; Plant response rating, Ragweed [13, 22]: 90; Plant response rating, Ragweed [13, 23]: 100; Plant response rating, Ryegrass, Italian [14, 22]: 70; Plant response rating, Ryegrass, Italian [14, 23]: 100; Plant response rating, Wheat [15, 22]: 0; Plant response rating, Wheat [15, 23]: 0; Plant response rating, Galium [16, 22]: 100; Plant response rating, Galium [16, 23]: 100; Plant response rating, Barnyardgrass (0 to 100 scale where 0 is no effect and 100 is complete control) [17]: 0; Plant response rating, Ducksalad (0 to 100 scale where 0 is no effect and 100 is complete control) [18]: 0; Plant response rating, Rice (0 to 100 scale where 0 is no effect and 100 is complete control) [19]: 0; Plant response rating, Sedge, Umbrella (0 to 100 scale where 0 is no effect and 100 is complete control) [20]: 0 |
| CC(=O)OCOc1c(C)nn(C)c(=O)c1-c1c2ccccc2c(Br)c2ccccc12 [Compound 14] | 10 | 80 | 60 | 100 | 20 | 30 | 100 | 100 | 80 | 100 | 30 | 80 | 20 | 30 | 0 | 0 | 30 | 90 | 30 | 60 | Plant response rating, Ragweed ([5]; 31 g ai/ha): 90; Plant response rating, Ragweed ([5]; 125 g ai/ha): 100; Plant response rating, Pigweed, Redroot [12, 22]: 100; Plant response rating, Pigweed, Redroot [12, 23]: 100; Plant response rating, Ragweed [13, 22]: 90; Plant response rating, Ragweed [13, 23]: 100; Plant response rating, Ryegrass, Italian [14, 22]: 80; Plant response rating, Ryegrass, Italian [14, 23]: 100; Plant response rating, Wheat [15, 22]: 0; Plant response rating, Wheat [15, 23]: 40; Plant response rating, Galium [16, 22]: 100; Plant response rating, Galium [16, 23]: 100; Plant response rating, Barnyardgrass (0 to 100 scale where 0 is no effect and 100 is complete control) [17]: 20; Plant response rating, Ducksalad (0 to 100 scale where 0 is no effect and 100 is complete control) [18]: 80; Plant response rating, Rice (0 to 100 scale where 0 is no effect and 100 is complete control) [19]: 0; Plant response rating, Sedge, Umbrella (0 to 100 scale where 0 is no effect and 100 is complete control) [20]: 90 |
